From patent EP0166986A1, “Disubstituted 3,7-diaryl-1,5,3,7-dioxadiazocines, and process for their preparation” (Deutsches Krebsforschungszentrum Stiftung des öffentlichen …, priority 1984, dated 1986) come the findings set out here.

Structures are written as SMILES.

One data set concerns TA100. In words: Mutagenicity test (Ames test), preincubation with or without rat liver S9. Format: cell-based, S. Typhimurium. The protocol:
(§1) • a) Mutagenitätsprüfungen Die Versuchsverbindung, gelöst in 40 µl an Dimethylsulphoxid und 100 µl eines Übernacht-Kulturmediums wurde zu 500 µl eines S9-Gemisches gegeben das 100 µl Leber S9 von mit Aroclor behandelten männlichen BD VI Ratten, 50 µl 0,15 M KC1 - 5 mM Sørensen Puffer pH 7,4 , […] Sørensen Phosphat Puffer (pH 7,4), […] NADP^+, 2,5 µmol Glukose-6-phosphat und […] MgC12 enthält. Das Gemisch wurde bei 37°C 30 Minuten lang unter Schütteln vorinkubiert und dann mit 2 ml histidinarmem Weichagar für die Plattenbildung auf minimalem Glukoseagar kombiniert. Die Anzahl der Revertanten wurde nach 48-stündiger Inkubation bei 37°C gezählt.
(§2) Mutagenität von synthetischen zyklischen Dioxadiazocinen in S. Typhimurium Stämmen. • a) Die meisten Zahlen entsprechen Mittelwerten aus zwei Versuchsreihen, die je dreifach gemacht wurden. Die Anzahl der spontanen Revertanten pro Platte (in Gegenwart des Lösungsmittels) wurde abgezogen. • b) AS: die Versuche wurden in Gegenwart (+) oder in Abwesenheit (-) eines metabolischen Aktivierungssystems aus S9 Rattenleber durchgeführt. • c) Die Konzentration bei welcher die untersuchten Verbindungen in S9-Mischung ausfielen.
In general terms: The Ames test detects mutagens through reverse mutation in bacteria.

In another data set the test system is TA98. Described as above. Format: cell-based, S. Typhimurium. On the procedure:
as §1, §2

The next data set has as its system S. Typhimurium Stämmen. The data set is described as follows: Mutagenicity test (Ames test), summary statements not tied to one strain. Format: cell-based. The following applies: for Mutagenität: S. Typhimurium strains, overall result in words. On the procedure: as §1, §2
The mark [1] stands for this setting: TA100, +AS (rat liver S9), 30 µg pro Platte, spontaneous revertants subtracted.
Setting [2] is: TA100, +AS (rat liver S9), 100 µg pro Platte, spontaneous revertants subtracted (pp'-CH3O CO precipitated in S9 mix).
The mark [3] stands for this setting: TA100, +AS (rat liver S9), 300 µg pro Platte, compounds precipitated in S9 mix, spontaneous revertants subtracted.
The mark [4] stands for this setting: TA100, -AS, 30 µg pro Platte, spontaneous revertants subtracted.
The mark [5] stands for this setting: TA100, -AS, 100 µg pro Platte, spontaneous revertants subtracted.
Setting [6] is: TA100, -AS, 300 µg pro Platte, spontaneous revertants subtracted.
[7] abbreviates: TA98, +AS (rat liver S9), 30 µg pro Platte, spontaneous revertants subtracted.
The mark [8] stands for this setting: TA98, +AS (rat liver S9), 100 µg pro Platte, spontaneous revertants subtracted (pp'-CH3O CO precipitated in S9 mix).
Where [9] appears, read: TA98, +AS (rat liver S9), 300 µg pro Platte, compounds precipitated in S9 mix, spontaneous revertants subtracted.
Setting [10] is: TA98, -AS, 30 µg pro Platte, spontaneous revertants subtracted.
The mark [11] stands for this setting: TA98, -AS, 100 µg pro Platte, spontaneous revertants subtracted.
The mark [12] stands for this setting: TA98, -AS, 300 µg pro Platte, spontaneous revertants subtracted.

Turning to `FC(F)(F)c1ccc(N2COCN(c3ccc(C(F)(F)F)cc3)COC2)cc1` [pp'-CF3, para-Trifluormethyl-3,7-diphenyl-1,5,3,7-dioxadiazocin], the “Anzahl der Revertanten pro Platte” value in the data set with TA100 (setting [1]) is on record as 44 Revertanten pro Platte; in the data set with TA100 (setting [2]) it was 86 Revertanten pro Platte; with TA100 (setting [3]), 98 Revertanten pro Platte; in the data set with TA100 (TA100, +AS (rat liver S9), 1000 µg pro Platte, compound precipitated in S9 mix, spontaneous revertants subtracted), 96 Revertanten pro Platte; with TA100 (setting [4]), 8 Revertanten pro Platte; with TA100 (setting [5]) it was 14 Revertanten pro Platte. Besides, the “Anzahl der Revertanten pro Platte” value in the data set on TA100 (setting [6]) was 5 Revertanten pro Platte; in the data set with TA100 (TA100, -AS, 1000 µg pro Platte, spontaneous revertants subtracted), 1 Revertanten pro Platte; in the data set on TA98 (setting [7]), 10 Revertanten pro Platte; in the data set with TA98 (setting [8]), 14 Revertanten pro Platte; with TA98 (setting [9]), 24 Revertanten pro Platte; with TA98 (TA98, +AS (rat liver S9), 1000 µg pro Platte, compound precipitated in S9 mix, spontaneous revertants subtracted), 12 Revertanten pro Platte. For the same compound, the “Anzahl der Revertanten pro Platte” value with TA98 (setting [10]) worked out at 0 Revertanten pro Platte; in the data set with TA98 (setting [11]) it was 0 Revertanten pro Platte; in the data set with TA98 (setting [12]), 2 Revertanten pro Platte; with TA98 (TA98, -AS, 1000 µg pro Platte, spontaneous revertants subtracted), 0 Revertanten pro Platte. For the same compound, the Mutagenität entry was “schwach mutagen” in the data set on TA100 (TA100, in presence of metabolic activation system, result in words) and “mutagen” in the data set with S. Typhimurium Stämmen.

Turning to `O=[N+]([O-])c1ccc(N2COCN(c3ccc([N+](=O)[O-])cc3)COC2)cc1` [pp'-NO2], the “Anzahl der Revertanten pro Platte” value in the data set with TA100 (TA100, +AS (rat liver S9), 10 µg pro Platte, spontaneous revertants subtracted) stood at 22 Revertanten pro Platte; in the data set with TA100 (setting [1]) it was 78 Revertanten pro Platte; in the data set with TA100 (setting [2]), 195 Revertanten pro Platte; in the data set on TA100 (setting [3]), 357 Revertanten pro Platte; with TA100 (TA100, -AS, 10 µg pro Platte, spontaneous revertants subtracted), 13 Revertanten pro Platte; in the data set with TA100 (setting [4]), 31 Revertanten pro Platte. Moreover, the “Anzahl der Revertanten pro Platte” value in the data set on TA100 (setting [5]) is recorded as 100 Revertanten pro Platte; with TA100 (setting [6]), 206 Revertanten pro Platte; in the data set with TA98 (TA98, +AS (rat liver S9), 10 µg pro Platte, spontaneous revertants subtracted), 37 Revertanten pro Platte; in the data set on TA98 (setting [7]), 88 Revertanten pro Platte; with TA98 (setting [8]), 280 Revertanten pro Platte; with TA98 (setting [9]), 507 Revertanten pro Platte. In addition, the “Anzahl der Revertanten pro Platte” value in the data set on TA98 (TA98, -AS, 10 µg pro Platte, spontaneous revertants subtracted) amounted to 65 Revertanten pro Platte; in the data set with TA98 (setting [10]) it was 163 Revertanten pro Platte; with TA98 (setting [11]) it was 373 Revertanten pro Platte; in the data set on TA98 (setting [12]), 839 Revertanten pro Platte. In addition, the “Mutagenität (Vergleich der Verbindungen)” value was “aktivste Verbindung” in the data set on TA100 (TA100, rank among the three tested compounds) and “aktivste Verbindung” in the data set on TA98 (TA98, rank among the three tested compounds). Moreover, in the data set with TA100 (with metabolic activation, TA100 compared with TA98), the “Mutagenität der reaktiven metabolischen Spezies” value is “nur in TA100 mutagen oder stärker mutagen”. Further, the “direkte Mutagenität” value in the data set with TA98 (without metabolic activation, TA98 compared with TA100) was “höher in TA98”; with S. Typhimurium Stämmen (without metabolic activation, result in words), “direkt mutagen”. Also, the Mutagenität result with S. Typhimurium Stämmen was “mutagen”.
